Some results are limits rather than exact numbers.

The target of the first assay is human Nav1.7 (Homo sapiens, UniProt Q15858). Kind of assay: FLIPR or FLIPR TETRA sodium dye assay with KCl and test article pre-incubation (CoroNa Green, veratridine + scorpion venom). Format: cell-based.
Sequence of human Nav1.7 (Q15858 1-1977 isoform Q15858-3): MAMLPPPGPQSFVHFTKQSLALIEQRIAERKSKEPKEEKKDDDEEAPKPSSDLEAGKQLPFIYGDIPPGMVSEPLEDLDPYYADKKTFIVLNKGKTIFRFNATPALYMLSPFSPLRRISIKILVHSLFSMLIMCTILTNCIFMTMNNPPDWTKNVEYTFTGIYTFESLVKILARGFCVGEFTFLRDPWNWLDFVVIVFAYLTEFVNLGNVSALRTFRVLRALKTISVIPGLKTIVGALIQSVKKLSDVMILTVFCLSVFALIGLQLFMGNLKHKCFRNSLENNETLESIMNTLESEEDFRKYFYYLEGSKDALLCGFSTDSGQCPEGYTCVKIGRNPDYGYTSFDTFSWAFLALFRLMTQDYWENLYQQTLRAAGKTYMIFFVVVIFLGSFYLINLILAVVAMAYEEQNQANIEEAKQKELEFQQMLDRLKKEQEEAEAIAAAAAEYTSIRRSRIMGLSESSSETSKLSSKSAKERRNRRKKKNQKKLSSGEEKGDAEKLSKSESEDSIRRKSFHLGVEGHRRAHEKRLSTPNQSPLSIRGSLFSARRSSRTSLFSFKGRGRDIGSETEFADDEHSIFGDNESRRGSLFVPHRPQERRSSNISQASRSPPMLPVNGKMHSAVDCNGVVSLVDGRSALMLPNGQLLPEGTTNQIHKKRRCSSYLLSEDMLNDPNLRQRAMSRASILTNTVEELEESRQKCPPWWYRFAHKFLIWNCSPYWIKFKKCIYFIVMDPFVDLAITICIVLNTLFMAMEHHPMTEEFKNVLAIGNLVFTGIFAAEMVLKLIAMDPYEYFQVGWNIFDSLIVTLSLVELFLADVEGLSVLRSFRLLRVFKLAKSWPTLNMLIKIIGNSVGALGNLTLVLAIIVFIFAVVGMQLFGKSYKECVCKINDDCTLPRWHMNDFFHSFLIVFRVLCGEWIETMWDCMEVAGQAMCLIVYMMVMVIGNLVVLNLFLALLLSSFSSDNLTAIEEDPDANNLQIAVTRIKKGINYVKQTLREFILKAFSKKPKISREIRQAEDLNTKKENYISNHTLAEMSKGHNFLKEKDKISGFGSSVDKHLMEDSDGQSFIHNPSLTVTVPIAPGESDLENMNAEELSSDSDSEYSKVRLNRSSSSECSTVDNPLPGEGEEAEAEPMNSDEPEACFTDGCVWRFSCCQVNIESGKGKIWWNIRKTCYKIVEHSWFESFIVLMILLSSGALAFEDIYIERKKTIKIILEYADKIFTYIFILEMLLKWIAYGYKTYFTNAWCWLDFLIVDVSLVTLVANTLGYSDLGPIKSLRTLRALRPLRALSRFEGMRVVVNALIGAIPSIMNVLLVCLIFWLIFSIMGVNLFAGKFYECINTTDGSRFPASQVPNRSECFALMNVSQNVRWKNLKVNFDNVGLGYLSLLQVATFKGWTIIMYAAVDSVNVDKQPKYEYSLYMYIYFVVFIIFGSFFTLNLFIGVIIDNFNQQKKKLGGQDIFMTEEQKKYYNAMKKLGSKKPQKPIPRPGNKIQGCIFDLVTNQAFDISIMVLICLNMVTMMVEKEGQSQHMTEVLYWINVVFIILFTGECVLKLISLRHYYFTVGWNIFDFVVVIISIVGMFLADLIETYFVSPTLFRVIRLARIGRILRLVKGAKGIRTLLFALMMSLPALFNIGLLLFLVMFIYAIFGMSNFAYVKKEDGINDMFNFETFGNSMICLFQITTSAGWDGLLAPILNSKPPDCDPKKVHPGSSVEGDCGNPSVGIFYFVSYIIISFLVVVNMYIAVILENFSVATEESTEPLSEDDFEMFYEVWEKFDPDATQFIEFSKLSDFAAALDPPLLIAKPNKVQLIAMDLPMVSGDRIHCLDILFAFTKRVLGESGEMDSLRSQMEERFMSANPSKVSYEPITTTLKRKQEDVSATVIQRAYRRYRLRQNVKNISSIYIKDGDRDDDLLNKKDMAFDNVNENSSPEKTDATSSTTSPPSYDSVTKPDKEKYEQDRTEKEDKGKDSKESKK
Settings: not given
As usually defined, the IC50 is the concentration that gives 50% inhibition. `CS(=O)(=O)N1CCN(c2ccc(C(F)(F)F)cc2)c2ccc(-c3cccc([C@H](O)CO)n3)cc2C1` [Compound 95, (S)-1-(6-(4-(methylsulfonyl)-1-(4-(trifluoromethyl)phenyl)-2,3,4,5-tetrahydro-1H-benzo[e][1,4]diazepin-7-yl)pyridin-2-yl)ethane-1,2-diol]: the IC50 came out at 0.469 ± 0.017 µM.

Staying with this assay, now noted: recombinant human Nav1.7 in HEK293 cells.
Turning to `NC(=O)c1cccc(-c2ccc3c(c2)CNCCN3c2ccc(C(F)(F)F)cc2)n1` [Compound 84, 6-(1-(4-(trifluoromethyl)-phenyl)-2,3,4,5-tetrahydro-1H-benzo[e][1,4]diazepin-7-yl)picolinamide], the IC50 turned out to be 1.92 ± 0.296 µM. The same measure, in the same setting: the value for `O=C1Cc2cc(-c3cccc([C@H](O)CO)n3)ccc2N1Cc1ccc(C(F)(F)F)cc1` [Compound 77, (S)-5-(6-(1,2-dihydroxyethyl)pyridin-2-yl)-1-(4-(trifluoromethyl)-benzyl)indolin-2-one] was 7.8 ± 0.691 µM. As to `OC[C@@H](O)c1cccc(-c2ccc3c(c2)CCCCN3C2CCCCC2)n1` [Compound 73, (S)-1-(6-(1-cyclohexyl-2,3,4,5-tetrahydro-1H-benzo[b]azepin-7-yl)pyridin-2-yl)ethane-1,2-diol], the 50% inhibitory concentration (IC50) is 0.331 ± 0.031 µM. On to `C[C@H](Nc1cc(C(N)=O)nc(-c2ccc3c(c2)CCCN3c2ccc(C(F)(F)F)cc2)n1)C(N)=O` [Compound 80, (S)-6-((1-amino-1-oxopropan-2-yl)amino)-2-(1-(4-(trifluoro-methyl)phenyl)-1,2,3,4-tetrahydroquinolin-6-yl)pyrimidine-4-carboxamide], for which the IC50 turned out to be 0.653 ± 0.118 µM. On the same count and under the same terms, the value for `OC[C@@H](O)c1cccc(-c2ccc3c(c2)CCCN3Cc2ccc(C(F)(F)F)cc2)n1` [Compound 81, (S)-1-(6-(1-(4-(trifluoromethyl)benzyl)-1,2,3,4-tetrahydroquinolin-6-yl)pyridin-2-yl)ethane-1,2-diol] was 0.091 ± 0.025 µM; that for `CC(=O)N1CCN(C2CCCCC2)c2ccc(-c3cccc([C@H](O)CO)n3)cc2C1` [Compound 94, (S)-1-(1-cyclohexyl-7-(6-(1,2-dihydroxyethyl)pyridin-2-yl)-1,2,3,5-tetrahydro-4H-benzo[e][1,4]diazepin-4-yl)ethan-1-one] was 8.8 ± 1.92 µM; that for `CN(C)CC(=O)N1CCN(c2ccc(C(F)(F)F)cc2)c2ccc(-c3cccc([C@H](O)CO)n3)cc2C1` [Compound 100, (S)-1-(7-(6-(1,2-dihydroxyethyl)pyridin-2-yl)-1-(4-(trifluoromethyl)phenyl)-1,2,3,5-tetrahydro-4H-benzo[e][1,4]diazepin-4-yl)-2-(dimethylamino)ethan-1-one] was 7.07 ± 1.45 µM. Same read-out and setting: the result for `CCNC(=O)N1CCN(c2ccc(C(F)(F)F)cc2)c2ccc(-c3cccc([C@H](O)CO)n3)cc2C1` [Compound 97, (S)-7-(6-(1,2-dihydroxyethyl)pyridin-2-yl)-N-ethyl-1-(4-(trifluoromethyl)phenyl)-1,2,3,5-tetrahydro-4H-benzo[e][1,4]diazepin-4-carboxamide] reads 2.62 ± 0.1 µM; that for `C[C@H](Nc1cc(C(N)=O)nc(-c2ccc3c(c2)CCCCN3c2ccc(C(F)(F)F)cc2)n1)C(N)=O` [Compound 64, (S)-6-((1-amino-1-oxopropan-2-yl)amino)-2-(1-(4-(trifluoro-methyl)phenyl)-2,3,4,5-tetrahydro-1H-benzo[b]azepin-7-yl)pyrimidine-4-carboxamide], 1.04 ± 0.077 µM. With `C[C@H](Nc1cc(C(N)=O)nc(-c2ccc3c(c2)CN(CC2CC2)CCN3c2ccc(C(F)(F)F)cc2)n1)C(N)=O` [Compound 89, (S)-6-((1-amino-1-oxopropan-2-yl)amino)-2-(4-(cyclopropylmethyl)-1-(4-(trifluoromethyl)phenyl)-2,3,4,5-tetrahydro-1H-benzo[e][1,4]diazepin-7-yl)pyrimidine-4-carboxamide], the IC50 was > 20 µM. Same read-out and setting: the result for `NC(=O)c1cccc(-c2ccc3c(c2)CCCN3c2cccc(C(F)(F)F)c2)n1` [Compound 67, 6-(1-(3-(trifluoromethyl)-phenyl)-1,2,3,4-tetrahydroquinolin-6-yl)picolinamide] reads > 20 µM. The same measure, in the same setting: the value for `NC(=O)c1cccc(-c2ccc3c(c2)OCC=C3c2ccc(C(F)(F)F)cc2)n1` [Compound 69, 6-(4-(4-(trifluoromethyl)-phenyl)-2H-chromen-7-yl)picolinamide] was 0.524 ± 0.077 µM; that for `NC(=O)c1cc([C@H](O)CO)cc(-c2ccc3c(c2)CN(CC2CC2)CCN3c2ccc(C(F)(F)F)cc2)n1` [Compound 122, (S)-6-(4-(cyclopropylmethyl)-1-(4-(trifluoromethyl)phenyl)-2,3,4,5-tetrahydro-1H-benzo[e][1,4]diazepin-7-yl)-4-(1,2-dihydroxyethyl)-picolinamide] was 7.21 ± 0.341 µM. On the same count and under the same terms, the result for `NC(=O)c1cc(O[C@H]2CCNC2=O)nc(-c2ccc3c(c2)OCCCN3c2ccc(C(F)(F)F)cc2)n1` [Compound 82, (S)-6-((2-oxopyrrolidin-3-yl)oxy)-2-(5-(4-(trifluoromethyl)phenyl)-2,3,4,5-tetrahydrobenzo-[b][1,4]oxazepin-8-yl)pyrimidine-4-carboxamide] reads 0.211 ± 0.038 µM; that for `NC(=O)[C@H](O)[C@@H](O)c1cccc(-c2ccc3c(c2)OCCCN3c2ccc(C(F)(F)F)cc2)n1` [Compound 83, (2R,3S)-2,3-dihydroxy-3-(6-(5-(4-(trifluoromethyl)phenyl)-2,3,4,5-tetrahydrobenzo[b][1,4]-oxazepin-8-yl)pyridin-2-yl)propanamide], 0.213 ± 0.013 µM. Take `OC[C@@H](O)c1cccc(-c2ccc3c(c2)CCCCN3C2CCOCC2)n1` [Compound 75, (S)-1-(6-(1-(tetrahydro-2H-pyran-4-yl)-2,3,4,5-tetrahydro-1H-benzo[b]azepin-7-yl)pyridin-2-yl)ethane-1,2-diol]: the IC50 is 3.35 ± 0.244 µM. The same measure, in the same setting: the value for `OC[C@@H](O)c1cccc(-c2ccc3c(c2)CN(Cc2ncc[nH]2)CCN3c2ccc(C(F)(F)F)cc2)n1` [Compound 107, (S)-1-(6-(4-((1H-imidazol-2-yl)methyl)-1-(4-(trifluoromethyl)phenyl)-2,3,4,5-tetrahydro-1H-benzo[e][1,4]diazepin-7-yl)pyridin-2-yl)ethane-1,2-diol] was 0.669 ± 0.053 µM; that for `O=S(=O)(c1ccc(C(F)(F)F)cc1)N1CCCc2cc(-c3cccc([C@H](O)CO)n3)ccc21` [Compound 78, (S)-1-(6-(1-((4-(trifluoromethyl)-phenyl)sulfonyl)-1,2,3,4-tetrahydroquinolin-6-yl)pyridin-2-yl)ethane-1,2-diol] was 0.857 ± 0.103 µM; that for `NC(=O)c1cccc(-c2ccc3c(c2)CN(C(=O)C2CC2)CCN3c2ccc(C(F)(F)F)cc2)n1` [Compound 93, 6-(4-(cyclopropanecarbonyl)-1-(4-(trifluoromethyl)phenyl)-2,3,4,5-tetrahydro-1H-benzo[e][1,4]diazepin-7-yl)picolinamide] was > 20 µM. Turning to `NC(=O)c1cc(CN[C@H]2CCNC2=O)nc(-c2ccc3c(c2)OCCCN3c2ccc(C(F)(F)F)cc2)n1` [Compound 72, (S)-6-(((2-oxopyrrolidin-3-yl)amino)methyl)-2-(5-(4-(trifluoromethyl)phenyl)-2,3,4,5-tetrahydrobenzo[b][1,4]oxazepin-8-yl)pyrimidine-4-carboxamide], the 50% inhibitory concentration (IC50) amounted to 0.11 ± 0.022 µM. Still for that read-out and setting: the result for `NC(=O)c1cccc(-c2ccc3c(c2)CN(CC(O)CO)CCN3c2ccc(C(F)(F)F)cc2)n1` (stereo not drawn) [Compound 109, 6-(4-(2,3-dihydroxypropyl)-1-(4-(trifluoromethyl)phenyl)-2,3,4,5-tetrahydro-1H-benzo[e][1,4]diazepin-7-yl)picolinamide] reads 5.7 ± 0.663 µM; that for `CCN(CC)C(=O)N1CCN(c2ccc(C(F)(F)F)cc2)c2ccc(-c3cccc(C(N)=O)n3)cc2C1` [Compound 92, 7-(6-carbamoylpyridin-2-yl)-N,N-diethyl-1-(4-(trifluoromethyl)phenyl)-1,2,3,5-tetrahydro-4H-benzo[e][1,4]diazepino-4-carboxamide], 0.813 ± 0.057 µM.

With `CNC(=O)CN1CCN(c2ccc(C(F)(F)F)cc2)c2ccc(-c3cccc([C@H](O)CO)n3)cc2C1` [Compound 105, (S)-2-(7-(6-(1,2-dihydroxyethyl)pyridin-2-yl)-1-(4-(trifluoromethyl)phenyl)-1,2,3,5-tetrahydro-4H-benzo[e][1,4]diazepin-4-yl)-N-methylacetamide], the IC50 came out at 0.644 ± 0.025 µM. As to `NC(=O)c1cccc(-c2ccc3c(c2)CCCCN3c2ccc(C(F)(F)F)cc2)n1` [Compound 58, 6-(1-(4-(trifluoromethyl)phenyl)-2,3,4,5-tetrahydro-1H-benzo[b]azepin-7-yl)picolinamide], the IC50 worked out at 0.357 ± 0.015 µM.

In the case of `N#CCN1CCN(c2ccc(C(F)(F)F)cc2)c2ccc(-c3cccc([C@H](O)CO)n3)cc2C1` [Compound 106, (S)-2-(7-(6-(1,2-dihydroxyethyl)pyridin-2-yl)-1-(4-(trifluoromethyl)phenyl)-1,2,3,5-tetrahydro-4H-benzo[e][1,4]diazepin-4-yl)acetonitrile], the IC50 was determined as 0.581 ± 0.038 µM.

In the case of `NC(=O)c1cc(-c2ccc3c(c2)CN(CC2CC2)CCN3c2ccc(C(F)(F)F)cc2)cc([C@H](O)CO)n1` [Compound 123, (S)-4-(4-(cyclopropylmethyl)-1-(4-(trifluoromethyl)phenyl)-2,3,4,5-tetrahydro-1H-benzo[e][1,4]diazepin-7-yl)-6-(1,2-dihydroxyethyl)-picolinamide], the half-inhibitory concentration (IC50) was 9.61 ± 0.339 µM. Still for that read-out and setting: the result for `NC(=O)c1cccc(-c2ccc3c(c2)COCCN3c2ccc(C(F)(F)F)cc2)n1` [Compound 61, 6-(1-(4-(trifluoromethyl)phenyl)-1,2,3,5-tetrahydrobenzo[e][1,4]oxazepin-7-yl)picolinamide] reads 0.404 ± 0.036 µM; that for `C[C@H](Nc1cc(C(N)=O)nc(-c2ccc3c(c2)CCCCN3C2CCCCC2)n1)C(N)=O` [Compound 74, (S)-6-((1-amino-1-oxopropan-2-yl)amino)-2-(1-cyclohexyl-2,3,4,5-tetrahydro-1H-benzo[b]azepin-7-yl)pyrimidine-4-carboxamide], 4.88 ± 0.47 µM; that for `NC(=O)c1cccc(-c2ccc3c(c2)CCN3c2ccc(C(F)(F)F)cc2)n1` [Compound 68, 6-(1-(4-(trifluoromethyl)-phenyl)indolin-5-yl)-picolinamide], > 20 µM.

Source of the values: patent US10047075B2, “Pyridines and pyrimidines and use thereof” (Purdue Pharma L.P., priority 2014, dated 2018).
